Test results: paper PMC9343080, “Distribution- and Metabolism-Based Drug Discovery: A Potassium-Competitive Acid Blocker as a Proof of Concept” (Research, 2022)

Test: Metabolite identification and profiling in human hepatocytes
Type: in vitro ADME
Conditions: SH-337, human hepatocytes, 120 min incubation
Protocol: SH-337 was incubated with rat or human hepatocytes at a concentration of 1.0 × 10^6 cells/mL for 60 min or 120 min (rat 60 min, human 120 min) at 37°C in a CO2 incubator. The samples were precipitated with acetonitrile at 1 : 2 and further centrifuged; the supernatants were dried with a stream of N2 gas. The residues were reconstituted with 300 μL of 10% acetonitrile/H2O (0.1% TFA) and analyzed by LC-MS/MS. The assays were pursued under the conditions provided in Supplementary Tables S5–S8.

In the case of `CNCc1cc(-c2ccc(OCC3CC3)cc2F)n(S(=O)(=O)c2cccnc2)c1.Cl.Cl` [SH-337, 1-(5-(4-(cyclopropylmethoxy)-2-fluorophenyl)-1-(pyridin-3-ylsulfonyl)-1H-pyrrol-3-yl)-N-methylmethanamine dihydrochloride], the “Relative peak area, Hheps” value was 76.5%.
